Measurements taken from patent US7772246B2 (Pfizer Inc., priority 2007, dated 2010).
Where two headings read alike, the source gives them in different places.

Molecular target: T1, b-Raf (Homo sapiens, UniProt P15056, V600E)
T1 construct: endogenous in cells; host or cells: A2058 human melanoma cells
Test: Raf cellular assay (phospho-Mek1/2 ELISA in A2058 cells)
Type: cell-based
Settings: human melanoma A2058 cells (b-Raf mutation), Mek1/2 Ser217/221 phosphorylation, 1 hour incubation, read-out: pMEK IC50
Description: Compounds of the present invention were evaluated for potency against b-Raf using a cellular assay as follows. The activity of Raf kinases in cells is determined by measuring the level of phosphorylation of Mek1/2 at serine 217/221, the site phosphorylated by Raf kinases in vivo. Mek1/2 Ser phosphorylation is measured using anti-phospho-Mek1/2 antibodies (Cell Signaling #9121) in an ELISA format.
Healthy growing human melanoma A2058 cells (harboring a b-Raf mutation) are used for the assay. A2058 cells are grown in 10% FBS DMEM medium. When the cells are near 85%+confluence, the cells are rinsed with PBS once and trypsinized with trypsin/EDTA for 3 minutes. The cells are resuspended in 10% FBS DMEM and are centrifuged down at 1000 rpm for 5 minutes. The cells are resuspended in 10% FBS DMEM and counted on a cell counter. The cells are seeded at 50,000 cells/well in a volume of 100 μL/well in 10% FBS DMEM in a 96 well flat-bottom plate. The negative control wells receive only 100 μL of 10% FBS DMEM medium without cells. The plate is incubated overnight in a cell culture incubator with 5% CO2 at 37° C.
On day 2, testing compounds are prepared in 10% FBS DMEM medium and serially diluted at 1:3 for 11 test concentrations. Each concentration of the compounds is tested in duplicate. The compound solutions are added at 25 μL/well to the corresponding wells in the cell plate, and 25 μL/well of the vehicle (0.5% DMSO in 10% FBS DMEM) is added to the negative control wells (no cells) and the positive control wells (cells without compounds). The plate is incubated for 1 hour in a cell culture incubator with 5% CO2 at 37° C. After 1 hour of incubation, the medium is removed, 100 μL/well of cell lysis buffer is added into the cell plate, and the plate is shaken for 15 minutes at room temperature. After 15 minutes, the cell lysates are transferred to an ELISA plate (pre-coated with anti-Mek1 anti-body, Cell Signaling #2352), and the plate is incubated with gentle shaking for 2 hours at room temperature. After 2 hours, the contents of the wells are aspirated and the wells are washed 4 times with wash buffer. 100 μL of phospho-Mek1/2 detection antibody (Cell Signaling #9121) is added into each well and the plate is incubated with gentle shaking for 1 hour at room temperature. After 1 hour, the wells are aspirated and washed 4 times with wash buffer. 100 μL of anti-rabbit IgG HRP-linked antibody (Cell Signaling #7074) is added to each well, and the plate is incubated with gentle shaking for 1 hour at room temperature. After 1 hour, the contents of the wells are aspirated and the wells are washed 4 times with wash buffer. 100 μL of TMB substrate solution (Sigma #T0440) is added into each well, and the plate is incubated with gentle shaking at room temperature for 10 to 20 minutes. After color development, 100 μL of stop solution (1N hydrochloric acid) is added to each well to terminate color development. The plate is read at 450 nm on an ELISA plate reader.

T1 sequence (P15056 whole entry V600E): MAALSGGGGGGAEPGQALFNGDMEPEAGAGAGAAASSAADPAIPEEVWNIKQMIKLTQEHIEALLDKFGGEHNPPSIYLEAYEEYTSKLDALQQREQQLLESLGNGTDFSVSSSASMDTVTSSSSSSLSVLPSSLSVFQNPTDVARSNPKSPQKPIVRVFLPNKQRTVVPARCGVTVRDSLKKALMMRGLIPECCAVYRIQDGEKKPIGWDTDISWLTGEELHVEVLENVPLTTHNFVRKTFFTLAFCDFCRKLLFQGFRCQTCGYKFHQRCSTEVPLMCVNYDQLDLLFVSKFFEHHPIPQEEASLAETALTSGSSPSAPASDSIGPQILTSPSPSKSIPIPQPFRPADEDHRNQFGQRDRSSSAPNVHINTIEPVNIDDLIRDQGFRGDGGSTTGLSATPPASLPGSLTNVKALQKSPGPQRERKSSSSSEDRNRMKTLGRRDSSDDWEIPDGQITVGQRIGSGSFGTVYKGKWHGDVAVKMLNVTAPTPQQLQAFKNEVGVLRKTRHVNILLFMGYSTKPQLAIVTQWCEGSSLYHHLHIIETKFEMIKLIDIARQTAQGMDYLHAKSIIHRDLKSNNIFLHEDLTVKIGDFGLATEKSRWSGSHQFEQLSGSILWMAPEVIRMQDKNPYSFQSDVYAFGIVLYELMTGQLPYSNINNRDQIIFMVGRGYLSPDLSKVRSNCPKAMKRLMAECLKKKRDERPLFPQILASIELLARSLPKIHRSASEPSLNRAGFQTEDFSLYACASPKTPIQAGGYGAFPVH

Row | Compound | IC50 (Table 2) [nM] | IC50 (Table 3) [nM]
1 | Cc1cn2cc(-c3nn(C(C)C)cc3-c3ccnc(NC[C@H](C)O)n3)cnc2n1 [Example B-8, (2S)-1-(4-(1-isopropyl-3-(2-methylimidazo[1,2-a]pyrimidin-6-yl)-1H-pyrazol-4-yl)pyrimidin-2-ylamino)propan-2-ol] | 8490 | 
2 | COc1cc(-c2nn(C(C)C)cc2-c2ccnc(NC3CC3)n2)cnc1N [Example B-16, 4-[3-(6-amino-5-methoxypyridin-3-yl)-1-isopropyl-1H-pyrazol-4-yl]-N-cyclopropylpyrimidin-2-amine] |  | 24
3 | C[C@H](O)CNc1nccc(-c2cn(C3CC(F)(F)C3)nc2-c2cnc3[nH]cc(Cl)c3c2)n1 [Example B-17, (2S)-1-({4-[3-(3-chloro-1H-pyrrolo[2,3-b]pyridin-5-yl)-1-(3,3-difluorocyclobutyl)-1H-pyrazol-4-yl]pyrimidin-2-yl}amino)propan-2-ol] |  | 61.9
4 | Cc1cc(-c2nn(CC(F)F)cc2-c2ccnc(NC[C@H](C)O)n2)cnc1N [Example B-18, (2S)-1-({4-[3-(6-amino-5-methylpyridin-3-yl)-1-(2,2-difluoroethyl)-1H-pyrazol-4-yl]pyrimidin-2-yl}amino)propan-2-ol] |  | 580
5 | CC(C)n1cc(-c2ccnc(NCCC#N)n2)c(-c2cnc3[nH]cc(F)c3c2)n1 [Example B-19, 3-({4-[3-(3-fluoro-1H-pyrrolo[2,3-b]pyridin-5-yl)-1-isopropyl-1H-pyrazol-4-yl]pyrimidin-2-yl}amino)propanenitrile] |  | 2.71
6 | CC(C)n1cc(-c2ccnc(NCCC#N)n2)c(-c2cnc3c(c2)CCN3)n1 [Example B-20, 3-({4-[3-(2,3-dihydro-1H-pyrrolo[2,3-b]pyridin-5-yl)-1-isopropyl-1H-pyrazol-4-yl]pyrimidin-2-yl}amino)propanenitrile] |  | 6.64
7 | N#CCCNc1nccc(-c2cn(CC(F)F)nc2-c2cnc3[nH]cc(F)c3c2)n1 [Example B-21, 3-({4-[1-(2,2-difluoroethyl)-3-(3-fluoro-1H-pyrrolo[2,3-b]pyridin-5-yl)-1H-pyrazol-4-yl]pyrimidin-2-yl}amino)propanenitrile] |  | 1.95
8 | CC(C)(CO)n1cc(-c2ccnc(NCCC#N)n2)c(-c2cnc3c(c2)CCN3)n1 [Example B-22, 3-({4-[3-(2,3-dihydro-1H-pyrrolo[2,3-b]pyridin-5-yl)-1-(2-hydroxy-1,1-dimethylethyl)-1H-pyrazol-4-yl]pyrimidin-2-yl}amino)propanenitrile] |  | 26.3
9 | Cc1c[nH]c2ncc(-c3nn(C(C)(C)CO)cc3-c3ccnc(NCCC#N)n3)cc12 [Example B-23, 3-({4-[1-(2-hydroxy-1,1-dimethylethyl)-3-(3-methyl-1H-pyrrolo[2,3-b]pyridin-5-yl)-1H-pyrazol-4-yl]pyrimidin-2-yl}amino)propanenitrile] |  | 0.428
10 | CC(C)(CO)n1cc(-c2ccnc(NCCC#N)n2)c(-c2cnc3[nH]cc(F)c3c2)n1 [Example B-24, 3-({4-[3-(3-fluoro-1H-pyrrolo[2,3-b]pyridin-5-yl)-1-(2-hydroxy-1,1-dimethylethyl)-1H-pyrazol-4-yl]pyrimidin-2-yl}amino)propanenitrile] |  | 3.26
11 | CC(C)(CO)n1cc(-c2ccnc(NCCC#N)n2)c(-c2cnc3[nH]ccc3c2)n1 [Example B-25, 3-({4-[1-(2-hydroxy-1,1-dimethylethyl)-3-(1H-pyrrolo[2,3-b]pyridin-5-yl)-1H-pyrazol-4-yl]pyrimidin-2-yl}amino)propanenitrile] |  | 5.98
12 | CC(=O)Nc1cc(C)c(-c2nn(CC(F)F)cc2-c2ccnc(NCCC#N)n2)cn1 [Example B-26, N-{5-[4-{2-[(2-cyanoethyl)amino]pyrimidin-4-yl}-1-(2,2-difluoroethyl)-1H-pyrazol-3-yl]-4-methylpyridin-2-yl}acetamide] |  | 2200
13 | O=S(=O)(C1CC1)N1CCC(Nc2nccc(-c3cn(CC(F)F)nc3-c3cnc4[nH]ccc4c3)n2)CC1 [Example B-27, N-[1-(cyclopropylsulfonyl)piperidin-4-yl]-4-[1-(2,2-difluoroethyl)-3-(1H-pyrrolo[2,3-b]pyridin-5-yl)-1H-pyrazol-4-yl]pyrimidin-2-amine] |  | 184
14 | Cc1ccc(-c2nn(CC(F)F)cc2-c2ccnc(NCCC#N)n2)cn1 [Example B-28, 3-({4-[1-(2,2-difluoroethyl)-3-(6-methylpyridin-3-yl)-1H-pyrazol-4-yl]pyrimidin-2-yl}amino)propanenitrile] |  | 538
15 | C[C@H](O)CNc1nccc(-c2cn(CC(F)F)nc2-c2ccnc3[nH]ccc23)n1 [Example B-29, (2S)-1-({4-[1-(2,2-difluoroethyl)-3-(1H-pyrrolo[2,3-b]pyridin-4-yl)-1H-pyrazol-4-yl]pyrimidin-2-yl}amino)propan-2-ol] |  | 9390
16 | COc1nc(-c2nn(C(C)(C)C)cc2-c2ccnc(NCCC#N)n2)cnc1N [Example B-30, 3-({4-[3-(5-amino-6-methoxypyrazin-2-yl)-1-tert-butyl-1H-pyrazol-4-yl]pyrimidin-2-yl}amino)propanenitrile] |  | 0.2
17 | COc1nc(-c2nn(C(C)C)cc2-c2ccnc(NCCC#N)n2)cnc1N [Example B-31, 3-({4-[3-(5-amino-6-methoxypyrazin-2-yl)-1-isopropyl-1H-pyrazol-4-yl]pyrimidin-2-yl}amino)propanenitrile] |  | 0.5
18 | COc1nc(-c2nn(CC(F)F)cc2-c2ccnc(NCCC#N)n2)cnc1N [Example B-32, 3-({4-[3-(5-amino-6-methoxypyrazin-2-yl)-1-(2,2-difluoroethyl)-1H-pyrazol-4-yl]pyrimidin-2-yl}amino)propanenitrile] |  | 1
19 | N#CCCNc1nccc(-c2cn(CC(F)F)nc2-c2cnc3[nH]ccc3c2)n1 [Example B-33, 3-({4-[1-(2,2-difluoroethyl)-3-(1H-pyrrolo[2,3-b]pyridin-5-yl)-1H-pyrazol-4-yl]pyrimidin-2-yl}amino)propanenitrile] |  | 4.48
20 | C[C@H](O)CNc1nccc(-c2cn(C(C)(C)C#N)nc2-c2cnc3[nH]cc(Cl)c3c2)n1 [Example B-34, 2-[3-(3-chloro-1H-pyrrolo[2,3-b]pyridin-5-yl)-4-(2-{[(2S)-2-hydroxypropyl]amino}pyrimidin-4-yl)-1H-pyrazol-1-yl]-2-methylpropanenitrile] |  | 29.5
21 | C[C@H](O)CNc1nccc(-c2cn(CC(F)F)nc2-c2cnc3ccn(C)c3c2)n1 [Example B-35, (2S)-1-({4-[1-(2,2-difluoroethyl)-3-(1-methyl-1H-pyrrolo[3,2-b]pyridin-6-yl)-1H-pyrazol-4-yl]pyrimidin-2-yl}amino)propan-2-ol] |  | 193
22 | N#CCCNc1nccc(-c2cn(CC(F)F)nc2-c2cnc3cc[nH]c3c2)n1 [Example B-36, 3-({4-[1-(2,2-difluoroethyl)-3-(1H-pyrrolo[3,2-b]pyridin-6-yl)-1H-pyrazol-4-yl]pyrimidin-2-yl}amino)propanenitrile] |  | 458
23 | Cn1ccc2ncc(-c3nn(C(C)(C)CO)cc3-c3ccnc(NCCC#N)n3)cc21 [Example B-37, 3-({4-[1-(2-hydroxy-1,1-dimethylethyl)-3-(1-methyl-1H-pyrrolo[3,2-b]pyridin-6-yl)-1H-pyrazol-4-yl]pyrimidin-2-yl}amino)propanenitrile] |  | 44
24 | Cn1ccc2ncc(-c3nn(CC(F)F)cc3-c3ccnc(NCCC#N)n3)cc21 [Example B-38] |  | 18.7
